Assays:
IL-23 p19 mRNA = assay: mRNA stability reporter gene (luciferase) assay, IL-23 p19; type: cell-based; conditions: 10 μM, 24 h, n.a. = no activity
Method: (§1) The basic principle of a reporter gene assay for determining compounds that destabilize mRNA is described in detail in WO 00/39314. A number of these assays for various drug targets have been developed and were tested with the compounds described in this disclosure. For THP-1 cells, compound is added at the time of the addition of LPS and luciferase measurements are taken 24 hours later or as indicated. For other cell lines, cells were plated in 96 well plates at 5*10^5 cells per 100 ul per well and incubated over night at 37° C. Compounds were then added and luciferase activity was measured after 24 hours. The activity was compared to other mRNA stability assays established for a range of other drug targets and found to be specific for IL-6, IL-12p40 and IL-23p19. Luciferase activity in the IL-6, IL-12 and IL-23 assays was inhibited by 10 μM benzopyran derivatives by >40% (Table IV).

IFNγ release from PBMCs = IFNγ release from PBMCs measured by ELISA; type: cell-based; conditions: 5 μM, human PBMCs
Method: (§2) Mononuclear cells are obtained from the blood of healthy volunteers via centrifugation and cultivated on tissue culture dishes with the test compound at various concentrations Schnyder, Bollinger et al. (1990). Inhibition of interleukin-1 release by IX 207-887. Agents Actions. 30: 350-362. Fresh human mononuclear cells were isolated on Ficoll-Paque gradient and washed several times. Fresh medium, test compound and LPS (10 μg/ml) or PHA (5 μg/ml) as stimulant are added and the monocytes incubated for a further day. The media are then removed and clarified by centrifugation at 1000×g for 10 min. Samples are stored at […] until the determinations can be made. IFNγ, IL 1β, IL 6, and IL-17 are determined using commercially available ELISA kits.

IL-6 mRNA [1] = assay: mRNA stability reporter gene (luciferase) assay, IL-6; type: cell-based; conditions: 24 h
Method: as §1

[2] = test system: IL-6 release from THP 1 cells; assay: IL-6 release from THP 1 cells measured by ELISA; type: cell-based, human; conditions: IFNγ/LPS-stimulated THP 1 cells, 24 h
Method: (§3) The THP 1 cell line is generally available and is described by Tsuchia et. al. Tsuchiya, Yamabe et al. (1980). Establishment and characterization of a human acute monocytic leukemia cell line (THP-1). Int J Cancer. 26: 171-176.
(§4) 900 μl THP 1 cells (0.5×10^6 cells) together with 100 Uγ interferon/0.9 ml RPMI 1640 medium (containing 2 mM L glutamine and 5% heat inactivated fetal calf serum) are pipetted into 24-well culture plates. 100 μl of the compound to be tested are then added. After 3 hours at 37° C. in 5% CO2/95% air, 10 μl lipopolysaccharide (LPS) 500 μg/ml is added and the incubation continued for a further 24 hours. Appropriate controls (with and without stimulus, solvent) are also included. The media are then removed and clarified by centrifugation at 1000 g for 10 min. Samples are stored at […] until the determinations can be made. IL 1β, IL 6 IL-12, and IL-23 assays are determined using commercially available ELISA kits. In these tests, the compounds of the disclosure may inhibit IL-1β, IL-6, IL-12 and IL-23 release at a concentration of about 10 to 50 μM. The compounds are non-toxic based on resazurin measurements as described in Didiot, Hewett et al. (2013). Identification of cardiac glycoside molecules as inhibitors of c-Myc IRES-mediated translation. J Biomol Screen. 18: 407-419.

[3] = test system: IL-1β release from THP 1 cells; assay: IL-1β release from THP 1 cells measured by ELISA; type: cell-based, human; conditions: IFNγ/LPS-stimulated THP 1 cells
Method: as §3, §4

IL-1β release from PBMCs = IL-1β release from PBMCs measured by ELISA; type: cell-based; conditions: LPS or PHA stimulated human PBMCs
Method: as §2

[4] = test system: IL-23 release from THP 1 cells; assay: IL-23 release from THP 1 cells measured by ELISA; type: cell-based, human; conditions: IFNγ/LPS-stimulated THP 1 cells
Method: as §3, §4

IL-17 release from PBMCs = IL-17 release from PBMCs measured by ELISA; type: cell-based; conditions: human PBMCs
Method: as §2

IL-12 = assay: LPS-induced cytokine release in mice, serum IL-12; type: in vivo; conditions: 100 mg/kg pre-treatment; serum 4 h post LPS; CD-1 mouse
Method: (§5) Compounds were evaluated on intra-peritoneal LPS-induced cytokine release measured in serum in the CD-1 mouse. Vehicle, Test item and positive control were administered 1 h before LPS injection as well 30 min post LPS injection (except as otherwise varied herein). In serum samples collected at 4 h post LPS injection, following cytokines were measured by multiplex on MSD 10 V-plex platform: TNF-alpha, IFN-gamma, IL-1beta, IL-2, IL-4, IL-5, IL-6, IL-10, IL-12, KC/GRO. All cytokines except IL-5 were induced by LPS injection (compared with saline injection).
(§6) Serum samples collected at 4h post LPS challenge were analyzed in duplicate wells using multiplex on MSD 10 V-plex platform. […] FIG. 1: Effect of test compounds 333 (TI1) and 1781 (TI2) on IFN-gamma levels in serum of LPS treated mice. FIG. 2: Effect of test compounds 333 (TI1) and 1781 (TI2) on IFN-gamma levels in serum of LPS treated mice (values of individual animals)

IL-6 mRNA [5] = assay: IL-6 mRNA levels in IFN-γ/LPS-stimulated THP-1 cells (RT-PCR); type: cell-based, human; conditions: γIFN/LPS, 24h, compounds 10 μM, RT-PCR vs β-actin
Method: Total RNA was isolated at t=24 h from IFN-γ/LPS-stimulated THP-1 cells exposed to compounds (10 μM) or DMSO (solvent control) for 24 […], using the RNeasy Midi Kit (Qiagen), according to the manufacturer's instructions, and eluted in DEPC-treated Milli-Q H2O. Quantity and purity of RNA were determined by absorbance at 260 and 280 nm.
For RT-PCR analysis, 1 μg of total RNA was reverse transcribed using AMV reverse transcriptase (Life Sciences Inc., St. Petersburg, Fla.), then amplified by the PCR method. Each PCR reaction also contained a set of β-actin primers as internal control. The levels of the expected PCR product were compared to the constant levels of β-actin. The size of the PCR products was compared to MspI digested pBR322 standards (New England Biolabs). PCR products were analyzed on a 4% agarose gel.
Nucleotide sequences for the oligonucleotide 5′ and 3′ primers, respectively, were: […]

IL-4 = assay: LPS-induced cytokine release in mice, serum IL-4; type: in vivo; conditions: 100 mg/kg pre-treatment; serum 4 h post LPS; CD-1 mouse
Method: as §5, §6

IL-6 release from PBMCs = IL-6 release from PBMCs measured by ELISA; type: cell-based; conditions: LPS or PHA stimulated human PBMCs
Method: as §2

IFN-gamma = assay: LPS-induced cytokine release in mice, serum IFN-gamma; type: in vivo; conditions: 100 mg/kg pre-treatment; serum 4 h post LPS; CD-1 mouse
Method: as §5, §6

TNF-alpha = assay: LPS-induced cytokine release in mice, serum TNF-alpha; type: in vivo; conditions: 100 mg/kg pre-treatment; serum 4 h post LPS; CD-1 mouse
Method: as §5, §6

IL-12 p40 mRNA = assay: mRNA stability reporter gene (luciferase) assay, IL-12 p40; type: cell-based; conditions: 10 μM, 24 h, n.a. = no activity
Method: as §1

| Compound | IL-23 p19 mRNA stability assay (% inhibition) (IL-23 p19 mRNA) | IFNγ release from PBMCs, % control (24 h) (IFNγ release from PBMCs) | IL-6 release from THP 1 cells, % control ([2]; 10 μM) | IL-6 release from THP 1 cells, % control ([2]; 40 μM) | IL-6 release from THP 1 cells, % control ([2]; 100 μM) | IL-1β release from THP 1 cells, % control at 10 μM [3] | IL-1β release from PBMCs (% control) (IL-1β release from PBMCs; 2.5 μM) | IL-1β release from PBMCs (% control) (IL-1β release from PBMCs; 5 μM) | IL-1β release from PBMCs (% control) (IL-1β release from PBMCs; 10 μM) | IL-1β release from PBMCs (% control) (IL-1β release from PBMCs; 20 μM) | IL-23 release from THP 1 cells, % control at 10 μM [4] | IL-17 release from PBMCs, % control (48 h) (IL-17 release from PBMCs; 2.5 μM) | IL-17 release from PBMCs, % control (48 h) (IL-17 release from PBMCs; 5 μM) | IL-17 release from PBMCs, % control (48 h) (IL-17 release from PBMCs; 10 μM) | Effect on serum IL-12 (IL-12) | IL-6 mRNA analysis, % ctrl (IL-6 mRNA [5]) | IL-6 release from PBMCs (% control) (IL-6 release from PBMCs; 2.5 μM) | IL-6 release from PBMCs (% control) (IL-6 release from PBMCs; 5 μM) | IL-6 release from PBMCs (% control) (IL-6 release from PBMCs; 10 μM) | IL-6 release from PBMCs (% control) (IL-6 release from PBMCs; 20 μM) | also measured |
| --- | --- | --- | --- | --- | --- | --- | --- | --- | --- | --- | --- | --- | --- | --- | --- | --- | --- | --- | --- | --- | --- |
| COC(=O)c1ccc(Oc2coc3cc(O)ccc3c2=O)cc1 [Compound 333, methyl 4-[(7-hydroxy-4-oxo-4H-chromen-3-yl)oxy]benzoate] | 76 % inhibition | 43 % control | 48 % control | 43 % control | 35 % control | 49 % control | 105 % control | 91 % control | 58 % control | 45 % control | 68 % control | 93 % control | 80 % control | 41 % control | trend of effect | 94 % ctrl | 121 % control | 158 % control | 176 % control | 68 % control | IC50 (IL-6 mRNA [1]; luciferase reporter): 2510 nM; Effect on serum IL-4 (IL-4): trend of effect; Effect on LPS-induced increase in serum IFN-gamma level (IFN-gamma): significantly blocked; Effect on serum TNF-alpha (TNF-alpha): trend of effect; IL-12 p40 mRNA stability assay (% inhibition) (IL-12 p40 mRNA): 72 % inhibition |
| COc1ccc(Oc2coc3cc(O)ccc3c2=O)cc1 [Compound 1781] | 41 % inhibition | 75 % control | 74 % control | 64 % control | 55 % control | 100 % control | 136 % control | 137 % control | 104 % control | 104 % control | 100 % control |  |  |  | trend of effect | 92 % ctrl | 115 % control | 127 % control | 83 % control | 57 % control | IL-6 mRNA stability assay (% inhibition) (IL-6 mRNA [1]; 10 μM, luciferase, n.a. = no activity): 84 % inhibition; Effect on serum IL-4 (IL-4): trend of effect; Effect on LPS-induced increase in serum IFN-gamma level (IFN-gamma): significantly blocked; Effect on serum TNF-alpha (TNF-alpha): trend of effect; IL-12 p40 mRNA stability assay (% inhibition) (IL-12 p40 mRNA): 62 % inhibition |
| CC(=O)Oc1ccc2c(=O)c(Oc3ccccc3)coc2c1 [Compound 1782] |  |  | 56 % control | 57 % control | 28 % control | 100 % control | 123 % control | 115 % control | 109 % control | 89 % control | 93 % control |  |  |  |  | 93 % ctrl | 106 % control | 139 % control | 89 % control | 61 % control |  |
| CC(=O)Oc1ccc2c(=O)c(Oc3ccc(C(=O)O)cc3)coc2c1 [Compound 276] |  | 100 % control |  |  |  |  |  |  |  |  |  | 79 % control | 46 % control | 57 % control |  |  |  |  |  |  |  |

From US11576892B2, “Benzopyran derivatives and uses thereof” (Novation Pharmaceuticals Inc., priority 2015, dated 2023)
